Reference: PMC13289212, “HIVIL: A human in vitro inflammatory liver model recapitulates immune-associated drug effects with high predictivity” (NAM journal, 2025)
Like-named read-outs stand apart in the source and are kept apart here.

How the values were obtained:
IL-6 [1] = assay: IL-6 ELISA in HIVIL (iKCs co-cultured with iHeps, LPS, 48 hr); type: cell-based, human; details: HIVIL; for IC50: Homo sapiens, LPS, 48 hr
Description: (§1) Human iPSC cell line iPS (IMR90)-4 was purchased from WiCell Research Institute (Madison, WI), and maintained with a feeder-free method according to the instruction from […] Technologies (Vancouver, BC, Canada). The protocol of differentiation towards iKCs and iHeps as described previously with slight modification ([Tasnim et al., 2019]; [Cai et al., 2012]), respectively. […] More details are provided in Supplementary Methods. After differentiation, iKCs was harvested using 0.05 % trypsin-EDTA (Gibco, Waltham, Massachusetts, USA), while iHeps were dissociated with TrypLE^TM (Gibco). iHep suspension was further filtered through a 40 µm cell strainer to remove extracellular matrix clumps. Cell suspension was centrifuged at 1000 rpm for 5 min. For co-culture set up, tissue culture plates were coated with Rat tail collagen I (Gibco) diluted 100-fold in 0.02 N acetic acid, and incubated at 37 °C for 1 h and washed 3 times with PBS. According to the protocol optimized by [Tasnim et al. (2019)], iKCs was firstly seeded at a density of 14,000 per well on 96-well plate with Advanced DMEM (plus supplements) containing 5 % FBS. On the following day, iHeps were added at a density of 35,000 per well in Williams’ Medium E (plus supplements) (iHep: iKCs ratio = 2.5: 1). This reflects the physiological ratio of these cells in vivo under inflammatory conditions ([Tasnim et al., 2021]). Fresh media containing drugs was applied to co-cultures the next day. 50,000 cells were seeded to establish iHeps monoculture. THP-1 cells were kindly obtained from Dr. Eliza Fong and cultured as described by [Zeng et al. (2015)]. Details provided in Supplementary Methods.
(§2) Stock solutions of drugs were prepared in dimethyl sulfoxide (DMSO) and dissolved in medium prior to use. […] For these two drugs, the highest DMSO concentration was 1 %. Supernatant was collected at 48 hr for measurement of cytokines, and remaining cells were subjected to viability assay prior to lysis for RNA extraction.
(§3) Enzyme-linked immunosorbent assay (ELISA) for measurement of cytokines: Interleukin-6 (IL-6), interleukin-10 (IL-10) and tumor necrosis factor alpha (TNFα) levels in the media were measured using the corresponding human-based ELISA kits (Abcam, Cambridge, United Kingdom) according to manufacturer’s instructions. The cytokine production from dosed cells was normalized with the viability value from the same well. The normalized cytokine level upon drug treatments was further presented as percentage of DMSO+LPS. […] This normalization approach has been used in previous studies (Rose et al. 2016).

IL-6 [2] = assay: IL-6 response in HIVIL using THP-1 macrophages co-cultured with iHeps; type: cell-based, human; details: HIVIL with THP-1 instead of iKCs, result in words
Description: Human iPSC cell line iPS (IMR90)-4 was purchased from WiCell Research Institute (Madison, WI), and maintained with a feeder-free method according to the instruction from […] Technologies (Vancouver, BC, Canada). The protocol of differentiation towards iKCs and iHeps as described previously with slight modification ([Tasnim et al., 2019]; [Cai et al., 2012]), respectively. The re-optimized protocol to generate iKCs is discussed in Results section. More details are provided in Supplementary Methods. After differentiation, iKCs was harvested using 0.05 % trypsin-EDTA (Gibco, Waltham, Massachusetts, USA), while iHeps were dissociated with TrypLE^TM (Gibco). iHep suspension was further filtered through a 40 µm cell strainer to remove extracellular matrix clumps. Cell suspension was centrifuged at 1000 rpm for 5 min. For co-culture set up, tissue culture plates were coated with Rat tail collagen I (Gibco) diluted 100-fold in 0.02 N acetic acid, and incubated at 37 °C for 1 h and washed 3 times with PBS. According to the protocol optimized by [Tasnim et al. (2019)], iKCs was firstly seeded at a density of 14,000 per well on 96-well plate with Advanced DMEM (plus supplements) containing 5 % FBS. On the following day, iHeps were added at a density of 35,000 per well in Williams’ Medium E (plus supplements) (iHep: iKCs ratio = 2.5: 1). This reflects the physiological ratio of these cells in vivo under inflammatory conditions ([Tasnim et al., 2021]). Fresh media containing drugs was applied to co-cultures the next day. 50,000 cells were seeded to establish iHeps monoculture. THP-1 cells were kindly obtained from Dr. Eliza Fong and cultured as described by [Zeng et al. (2015)]. Details provided in Supplementary Methods.
THP-1 maintenance and differentiation: THP-1 monocytic lineage was maintained in RPMI 1640 with 10% FBS. For differentiation to macrophages, suspension cells were collected and subjected to 2-day phorbol 12-myristate 13-acetate (PMA) treatment (50 ng/ml), followed by a 1-day PMA-free medium resting. THP-1 macrophages were trypsinzed and used for co-culture as described in Material and methods.
(§4) Enzyme-linked immunosorbent assay (ELISA) for measurement of cytokines: Interleukin-6 (IL-6), interleukin-10 (IL-10) and tumor necrosis factor alpha (TNFα) levels in the media were measured using the corresponding human-based ELISA kits (Abcam, Cambridge, United Kingdom) according to manufacturer’s instructions. The cytokine production from dosed cells was normalized with the viability value from the same well. The normalized cytokine level upon drug treatments was further presented as percentage of DMSO+LPS. Normalization to viability per well ensures that any changes in cytokines are not due to changes in cell numbers upon drug treatment and normalization to DMSO+LPS allows better comparison between different batches of experiments. This normalization approach has been used in previous studies (Rose et al. 2016).

IL-6 [3] = system: IL-6; design: method as in Steuerwald et al. 2013; Mahdy et al. 2002; Kang et al. 2001; details: ref Steuerwald et al. 2013; Mahdy et al. 2002; Kang et al. 2001; cited from earlier work
[4] = binary classification by human hepatotoxicity; ref Thakkar et al. 2020; cited from earlier work
[5] = Cammett et al. 2009, Mendes et al. 2014, cited from earlier work
IL-6 [6] = system: IL-6; design: method as in ref Hassan et al. 2016; Giustarini et al. 2019; Higuchi et al. 2012; Dik et al. 2018; details: ref Hassan et al. 2016; Giustarini et al. 2019; Higuchi et al. 2012; Dik et al. 2018; cited from earlier work
[7] = FDA-labeling information; ref Chen et al. 2016; cited from earlier work
IL-6 [8] = details: 858.6 μM, 1 μg/mL of LPS; ref Li et al. 2020; cited from earlier work
cytokines = system: cytokines; design: method as in ref Ganey et al. 2004; Honarmand et al. 2012; Manna and Aggarwal 1999; Yao et al. 2004; details: ref Ganey et al. 2004; Honarmand et al. 2012; Manna and Aggarwal 1999; Yao et al. 2004; cited from earlier work
[9] = system: HIVIL (iKCs co-cultured with iHeps); assay: AlamarBlue cell viability in HIVIL; details: Homo sapiens, 48 h, read-out: IC50: viability
Experimental: as §2

TNFα [10] = assay: TNFα ELISA in HIVIL (iKCs co-cultured with iHeps, LPS, 48 hr); type: cell-based, human; details: for TNFα induction: result in words
Description: as §1, §2, §3

TNFα [11] = details: ref Shaw et al. 2010; Zou et al. 2009; Bekker et al. 2012; Gandhi et al. 2013; Heidari et al. 2019; cited from earlier work
[12] = ref Ho et al. 2015; Kaplowitz 2005; Verma and Kaplowitz 2009; cited from earlier work
IL-6 [13] = assay: IL-6 production of iKC mono-culture; type: cell-based, human; details: result in words
Experimental: as §4

IL-6 [14] = assay: Optimization of stimulator and duration: IL-6 production; type: cell-based, human
Description: In order to evaluate the time-dependent inflammatory responses, we measured interleukin-6 (IL-6) production within 48 hr post-LPS treatment.

[15] = ref in each cell: Ademisoye et al. 2018, Xu et al. 2008, Agabeyoglu and Incecayir 2009, Rojanasthien et al. 2007, Reunanen et al. 1992, Li et al. 2002, Hong-mei et al. 2013, Bareggi et al. 1987, Jiang et al. 2008

Experimental for iKCs mono-culture: Cell viability assays: Cell viability was examined with AlamarBlue^TM cell viability assay (Thermo Fisher Scientific Inc.) according to manufacturer’s instructions. Briefly, cells were exposed to AlamarBlue^TM working solution, which was diluted 10-fold using PBS containing 2 mg/mL of glucose, for 1 hour. Color change in the solution was measured using fluorescence (Ex: 530nm, Em: 590nm) in Tecan Microplate Reader M1000 PRO. The viability of dosed cells was presented as percentage of the corresponding vehicle control.

Compound | drug-specific IL-6 response with THP-1 macrophages (IL-6 [2]) | Reported human responses: IL-6 (IL-6 [3]) | DILIst [4] | Cmax [5, 15] [µM] | group by drug-dependent IL-6 production (IL-6 [1]) | DILIrank [7] | other results
CCN(CC)Cc1cc(Nc2ccnc3cc(Cl)ccc23)ccc1O [AQ, amodiaquine] | failed to replicate IL-6 increases | IL-6↑ (Steuerwald et al. 2013) | 1 | 0.1 |  |  | IL-6 induction (IL-6 [1]; 10 μM): 1.47 fold
NC(=O)N1c2ccccc2C=Cc2ccccc21 [CBZ, carbamazepine] |  |  | 1 | 25.3 | dose-dependent induction | most | increase in IL-6 (IL-6 [1]): 1.7 fold; Reported in-vivo (murine) responses: IL-6 (IL-6 [6]): IL-6↑(Higuchi et al. 2012)
NNC(=O)c1ccncc1 [INH, isoniazid] | failed to replicate IL-6 increases | IL-6↑ (Steuerwald et al. 2013) | 1 |  |  | most | IL-6 induction (IL-6 [1]; all doses tested): at least 1.2 fold; changes in IL-6 levels (IL-6 [8]): did not show any changes; Reported in-vivo (murine) responses: IL-6 (IL-6 [6]): IL-6↑ (Hassan et al. 2016)
Cc1oncc1C(=O)Nc1ccc(C(F)(F)F)cc1 [LFM, leflunomide] |  |  | 1 | 24.8 | dose-dependent induction | most | increase in IL-6 (IL-6 [1]): 3.1 fold; Reported in-vivo (murine) responses: cytokines (cytokines): cytokines↓ via NF-kB (Manna and Aggarwal 1999; Yao et al. 2004)
Nc1nnc(-c2cccc(Cl)c2Cl)c(N)n1 [LTG, lamotrigine] | failed to replicate IL-6 increases | IL-6↑(Steuerwald et al. 2013) | 1 | 9.8 |  | most | dose-dependent increase in IL-6 levels over baseline (IL-6 [1]): 1.5- to 2 fold
Cc1ccnc2c1NC(=O)c1cccnc1N2C1CC1 [NVP, nevirapine] |  |  | 1 |  | dose-dependent inhibition | most | IC50 (IL-6 [1]): 1070 µM; IC50 [9]: 2610 µM; TNFα induction (TNFα [10]): all concentrations; Reported in-vivo (murine) responses: TNFα (TNFα [11]): TNFα↑ (Bekker et al. 2012)
O=C1NC(=O)C(c2ccccc2)(c2ccccc2)N1 [PHT, phenytoin] | failed to replicate IL-6 increases | IL-6↑ (Steuerwald et al. 2013) | 1 | 15.4 |  | most | dose-dependent increase in IL-6 levels over baseline (IL-6 [1]): 1.5- to 2 fold
CCCc1cc(=O)[nH]c(=S)[nH]1 [PTU, propylthiouracil] |  |  | 1 | 17.6 | dose-dependent inhibition | most | IC50 (IL-6 [1]): 259 µM; TNFα induction (TNFα [10]): all concentrations; Reported in-vivo (murine) responses: TNFα (TNFα [11]): TNFα↑ (Heidari et al. 2019); Cmax ([5]; ref in each cell: Xu et al. 2008): 17.6 µM
NC(=O)c1cnccn1 [PZA, pyrazinamide] |  |  | 1 | 407 | no dose-dependent changes | less | Known immune-mediated effects [12]: ×
CC1=C(CC(=O)O)c2cc(F)ccc2/C1=C\c1ccc([S+](C)[O-])cc1 (stereo not drawn) [SLD, sulindac] |  | mechanistic IL-6↓ (Kang et al. 2001) | 1 |  | dose-dependent inhibition | most | reduction of IL-6 (IL-6 [1]): 50%; IC50 (IL-6 [1]): 381 µM; IC50 [9]: 2060 µM; IL-6 / cytokine production in iKC mono-culture (IL-6 [13]): abolished; toxicity to iKCs mono-culture compared to iHeps mono-culture and HIVIL (iKCs mono-culture): substantially higher toxicity; dose at which TNFα induction was observed (TNFα [10]): < 200 µM; Reported in-vivo (murine) responses: TNFα (TNFα [11]): TNFα↑ (Zou et al. 2009)
CN(C/C=C/C#CC(C)(C)C)Cc1cccc2ccccc12 [TBF, terbinafine] |  |  | 1 | 3.4 | no dose-dependent changes | most | Known immune-mediated effects [12]: ×
lipopolysaccharide [LPS] |  |  |  |  |  |  | IL-6 production compared to vehicle control (IL-6 [14]; 24 hr post-LPS treatment): 10.15 fold; IL-6 production compared to vehicle control (IL-6 [14]; 48 hr post-LPS treatment): 4.70 fold
penicillin |  |  | 1 |  | no dose-dependent changes | less | Known immune-mediated effects [12]: ×
